Test results: US12398179B2, “Nanomolar peptides and derivatives to differentially modulate ephrin receptors” (Sanford Burnham Prebys Medical Discovery Institute, priority 2019, dated 2025)
≈ marks a conversion by molar mass, not a printed value. Read-outs that look alike come from different tables or passages of the source. Non-standard residues stand in square brackets, D forms with d. Residues, ends and D or L forms follow the SMILES beside them. No end group written: not given here. *: point of attachment. Biotin = O=C1N[C@H]2[C@H](CS[C@H]2CCCCC(=O)*)N1; βAla = NCCC(=O)O

Assays:
[1] = physchem
[2] = Peptide solubility in PBS/H2O
[3] = molecular target: T1, EphA2 (Homo sapiens, UniProt P29317); experiment: ELISA: inhibition of ephrin-A5 AP binding to immobilized EphA2 Fc; design: the immobilized EphA2 extracellular domain fused to the Fc portion of an antibody (EphA2 Fc); details: average ± SE
Procedure: (FIG. 2A) Representative ELISAs comparing the ability of the peptides to inhibit binding of ephrin-A5 fused to alkaline phosphatase (ephrin-A5 AP) to the immobilized EphA2 extracellular domain fused to the Fc portion of an antibody (EphA2 Fc). The graphs show averages±SE from triplicate measurements from a representative experiment. IC50 values calculated from the fitted curves in each experiment are shown. All concentrations are nM and the 100 nM peptide concentration is outlined in red. (FIG. 2B) Ephrin-A5 AP binding to the indicated EphA receptors and ephrin-B2 AP binding to the indicated EphB receptors in the presence of the indicated peptide, normalized to ephrin binding without peptide. The bars show averages±SE from triplicate measurements.
Target sequence in this assay (P29317 24-537 limits assumed, species assumed): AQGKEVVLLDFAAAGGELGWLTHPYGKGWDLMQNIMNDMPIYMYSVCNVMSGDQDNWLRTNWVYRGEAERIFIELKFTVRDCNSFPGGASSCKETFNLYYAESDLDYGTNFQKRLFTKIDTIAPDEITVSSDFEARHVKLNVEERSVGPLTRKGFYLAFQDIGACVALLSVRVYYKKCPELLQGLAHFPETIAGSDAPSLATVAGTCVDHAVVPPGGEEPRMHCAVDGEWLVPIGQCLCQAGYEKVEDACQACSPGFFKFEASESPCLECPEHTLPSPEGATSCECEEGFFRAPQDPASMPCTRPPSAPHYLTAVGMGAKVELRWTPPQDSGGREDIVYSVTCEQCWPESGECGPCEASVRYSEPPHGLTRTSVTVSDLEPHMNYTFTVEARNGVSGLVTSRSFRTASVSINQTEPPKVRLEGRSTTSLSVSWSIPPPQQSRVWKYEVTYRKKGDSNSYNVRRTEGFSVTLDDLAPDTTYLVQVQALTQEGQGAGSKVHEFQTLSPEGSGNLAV

[4] = molecular target: T2, EphA2 LBD (Homo sapiens, UniProt P29317); experiment: Isothermal titration calorimetry (ITC) of peptide binding
T2 construct: EphA2 LBD (residues 28-200); made in house; host or cells: E. coli Origami 2 (DE3)
T2 sequence (P29317 28-200): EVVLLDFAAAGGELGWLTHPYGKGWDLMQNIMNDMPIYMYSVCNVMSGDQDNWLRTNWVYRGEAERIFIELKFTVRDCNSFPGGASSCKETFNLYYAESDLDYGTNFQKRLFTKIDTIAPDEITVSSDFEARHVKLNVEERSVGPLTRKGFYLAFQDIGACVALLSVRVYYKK
Procedure: For ITC, all peptides were dissolved in DMSO and both the EphA2 LBD and the peptides were diluted to obtain a final buffer containing 9.5 mM HEPES, pH 7.9, 95 mM NaCl, and 5% DMSO. […] Two-microliter aliquots of a peptide solution were injected into the cell containing 205 μL EphA2 LBD. 200-400 μM peptides were titrated into 20-40 μM EphA2 LBD. Experimental data were analyzed using the Origin software package (Microcal). The integrated values for the reaction heats were normalized to the amount of injected peptide after blank subtraction.

[5] = molecular target: T1, EphA2; experiment: EphA2 Y588 autophosphorylation in PC3 cells (immunoblot); type: cell-based; design: endogenous EphA2 expressed in PC3 prostate cancer cells; endogenous in cells; host or cells: PC3 prostate cancer cells; details: for EphA2 activation / Y588 phosphorylation (in words): 15 min
Procedure: PC3 cells were treated for 15 min with different concentrations of the indicated peptides. […] The graphs show quantification of pY588 and pAKT from multiple blots (averages±SE), normalized to total EphA2 levels. The number of experiments analyzed is: 5 in FIG. 4A, 3 in FIG. 4B, 7 in FIG. 4C, 7 in FIG. 4D, 5 in FIG. 4E, 3 in FIG. 4F, 3 in FIG. 4G and 2 in FIG. 4H.
PC3 cells were treated for 15 min with different concentrations of the indicated peptides. […] The graphs show quantification of pY588 or pAKT from multiple blots (averages±SE), normalized to total EphA2 levels. The number of experiments analyzed is: 3 in FIG. 10A, 6 in FIG. 10B, 2 in FIG. 10C, 5 in FIG. 10D, 4 in FIG. 10E and 3 in FIG. 10F.
Target sequence in this assay (P29317 24-976): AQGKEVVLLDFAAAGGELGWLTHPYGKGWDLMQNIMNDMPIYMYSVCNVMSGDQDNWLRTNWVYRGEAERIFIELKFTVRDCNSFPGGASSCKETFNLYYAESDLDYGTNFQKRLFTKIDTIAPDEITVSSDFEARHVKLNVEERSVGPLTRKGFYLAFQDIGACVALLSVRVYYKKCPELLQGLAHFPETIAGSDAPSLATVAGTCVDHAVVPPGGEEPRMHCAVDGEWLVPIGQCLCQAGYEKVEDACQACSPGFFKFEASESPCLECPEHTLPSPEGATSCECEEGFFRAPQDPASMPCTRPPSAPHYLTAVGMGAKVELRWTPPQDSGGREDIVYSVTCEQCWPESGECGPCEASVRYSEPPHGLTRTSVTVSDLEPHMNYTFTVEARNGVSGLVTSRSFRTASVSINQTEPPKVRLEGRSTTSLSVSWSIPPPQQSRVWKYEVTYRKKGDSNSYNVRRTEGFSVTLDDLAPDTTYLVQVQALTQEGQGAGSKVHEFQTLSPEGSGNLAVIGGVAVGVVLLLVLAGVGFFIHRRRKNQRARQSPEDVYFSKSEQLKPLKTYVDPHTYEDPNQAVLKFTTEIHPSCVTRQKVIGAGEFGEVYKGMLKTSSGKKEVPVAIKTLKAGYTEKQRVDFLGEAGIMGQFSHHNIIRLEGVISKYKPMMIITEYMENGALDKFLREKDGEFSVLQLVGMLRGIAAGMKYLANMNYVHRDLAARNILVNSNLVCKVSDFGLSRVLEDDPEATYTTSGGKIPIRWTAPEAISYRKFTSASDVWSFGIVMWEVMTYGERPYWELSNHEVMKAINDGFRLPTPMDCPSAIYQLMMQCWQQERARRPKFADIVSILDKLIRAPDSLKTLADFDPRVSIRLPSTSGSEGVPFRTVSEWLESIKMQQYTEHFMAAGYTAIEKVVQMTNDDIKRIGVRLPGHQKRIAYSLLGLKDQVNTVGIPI

[6] = PBS, Solubility in PBS (mg/ml), PBS (first figure of cell)
[7] = water, Solubility in H2O (mg/ml), H2O (second figure of cell)

Compound | solubility [2, 6] [µg/mL] | solubility [2, 7] [µg/mL] | IC50 [3] [nM] | further results
CC(C)C[C@H](NC(=O)[C@H](Cc1c[nH]c2ccccc12)NC(=O)[C@@H](N)CO)C(=O)N[C@@H](C)C(=O)N[C@@H](Cc1ccc(O)cc1)C(=O)N1CCC[C@H]1C(=O)NCC(=O)N[C@@H](C)C(=O)N[C@H](C(=O)N[C@@H](CO)C(=O)N[C@@H](Cc1ccc(O)cc1)C(=O)N[C@@H](CCCN=C(N)N)C(=O)O)C(C)C [SWL] |  |  |  | solubility ([1]; Solubility in H2O (mg/ml)): 10000 µg/mL (≈ 7.3 mM); solubility ([1]; Solubility in PBS (mg/ml)): 5000 µg/mL (≈ 3.65 mM)
CSCC[C@H](NC(=O)[C@H](CCSC)NC(=O)[C@@H]1CCCN1C(=O)[C@@H](NC(=O)[C@H](CO)NC(=O)[C@H](CC(=O)O)NC(=O)[C@@H]1CCCN1C(=O)[C@H](Cc1ccc(O)cc1)NC(=O)[C@H](C)NC(=O)[C@H](CO)NC(=O)[C@@H](N)Cc1ccc(O)cc1)C(C)C)C(=O)N[C@@H](CO)C(=O)NCC(=O)N[C@@H](CO)C(=O)NCC(=O)N[C@@H](CO)C(=O)N[C@@H](CCCCN)C(=O)O [YSA-GSGSK] | 10000 (≈ 5.67 mM) | 5000 (≈ 2.83 mM) | 4500 | 
O=C(O)CCCC[C@@H]1SC[C@@H]2NC(=O)N[C@@H]21 [biotin, reference compound] |  |  |  | binding to the EphA2 LBD by ITC (in words) ([4]; 1 mM biotin): did not detect binding
CC(C)C[C@H](NC(=O)[C@H](Cc1c[nH]c2ccccc12)NC(=O)CCN)C(=O)N[C@@H](C)C(=O)N[C@@H](Cc1ccc(O)cc1)C(=O)N1CCC[C@H]1C(=O)N[C@@H](CC(=O)O)C(=O)N[C@@H](CO)C(=O)N[C@H](C(=O)N1CCC[C@H]1C(=O)N[C@@H](Cc1ccc(O)cc1)C(=O)NCC(=O)N[C@@H](CO)C(=O)NCC(=O)N[C@@H](CCCCNC(=O)CCCC[C@@H]1SC[C@@H]2NC(=O)N[C@@H]21)C(=O)O)C(C)C [βA-WLA-YGSGK-bio] (H-[βAla]WLAYPDSVPYGSGK(Biotin)-OH; N-terminus and C-terminus assumed) | 5000 (≈ 2.72 mM) | 5000 (≈ 2.72 mM) | 330 ± 40 | 
CC(=O)NCCCC[C@H](NC(=O)[C@@H]1CCCN1C(=O)[C@H](CCCNC(=N)N)NC(=O)[C@H](Cc1ccc(O)cc1)NC(=O)[C@@H]1CCCN1C(=O)[C@@H](NC(=O)[C@H](CO)NC(=O)[C@H](CC(=O)O)NC(=O)[C@@H]1CCCN1C(=O)[C@H](Cc1ccc(O)cc1)NC(=O)[C@H](C)NC(=O)[C@H](CC(C)C)NC(=O)[C@H](Cc1c[nH]c2ccccc12)NC(=O)CCN)C(C)C)C(=O)O [βA-WLA-YRP-ack] | 5000 (≈ 2.93 mM) | 5000 (≈ 2.93 mM) | 82 ± 10 | EphA2 activation / Y588 phosphorylation (in words) [5]: only slightly increased agonistic ability
CC(C)C[C@H](NC(=O)[C@H](Cc1c[nH]c2ccccc12)NC(=O)CCN)C(=O)N[C@@H](C)C(=O)N[C@@H](Cc1ccc(O)cc1)C(=O)N1CCC[C@H]1C(=O)N[C@@H](CC(=O)O)C(=O)N[C@@H](CO)C(=O)N[C@H](C(=O)N1CCC[C@H]1C(=O)N[C@@H](Cc1ccc(O)cc1)C(=O)N[C@@H](CCCNC(=N)N)C(=O)N1CCC[C@H]1C(=O)N[C@@H](CCCCN)C(=O)O)C(C)C [βA-WLA-YRPK] | 10000 (≈ 6.01 mM) | 10000 (≈ 6.01 mM) | 55 ± 5 | Kd ([4]; EphA2 LBD, 23° C., average ± SE (Table 1), read-out: KD (nM) by ITC): 190 nM; Kd ([4]; read-out: binding affinity for the EphA2 LBD measured by ITC): ~200 nM; EphA2 activation / Y588 phosphorylation (in words) [5]: substantial ability to activate EphA2; maximal Y588 phosphorylation lower than biotinylated peptide ([5]; saturating peptide concentrations): about 40%
CC(C)C[C@H](NC(=O)[C@H](Cc1c[nH]c2ccccc12)NC(=O)CCN)C(=O)N[C@@H](C)C(=O)N[C@@H](Cc1ccc(O)cc1)C(=O)N1CCC[C@H]1C(=O)N[C@@H](CC(=O)O)C(=O)N[C@@H](CO)C(=O)N[C@H](C(=O)N1CCC[C@H]1C(=O)N[C@@H](Cc1ccc(O)cc1)C(=O)N[C@@H](CCCNC(=N)N)C(=O)N1CCC[C@H]1C(=O)N[C@@H](CCCCNC(=O)CCCC[C@@H]1SC[C@@H]2NC(=O)N[C@@H]21)C(N)=O)C(C)C [βA-WLA-YRPKam-bio] | 2000 (≈ 1.06 mM) | 5000 (≈ 2.65 mM) | 18 ± 1 | EphA2 activation / Y588 phosphorylation (in words) [5]: induce high levels of EphA2 phosphorylation
CC(C)C[C@H](NC(=O)[C@H](Cc1c[nH]c2ccccc12)NC(=O)CCN)C(=O)N[C@@H](C)C(=O)N[C@@H](Cc1ccc(O)cc1)C(=O)N1CCC[C@H]1C(=O)N[C@@H](CC(=O)O)C(=O)N[C@@H](CO)C(=O)N[C@H](C(=O)N1CCC[C@H]1C(=O)N[C@@H](Cc1ccc(O)cc1)C(=O)N[C@@H](CCCNC(=N)N)C(=O)O)C(C)C [βA-WLA-YR] (HELM PEPTIDE1{[bAla].W.L.A.Y.P.D.S.V.P.Y.R}$$$$V2.0; N-terminus and C-terminus assumed) | 5000 (≈ 3.48 mM) | 5000 (≈ 3.48 mM) | 390 ± 30 | 
CC(C)C[C@H](NC(=O)[C@H](Cc1c[nH]c2ccccc12)NC(=O)CCN)C(=O)N[C@@H](C)C(=O)N[C@@H](Cc1ccc(O)cc1)C(=O)N1CCC[C@H]1C(=O)N[C@@H](CC(=O)O)C(=O)N[C@@H](CO)C(=O)N[C@H](C(=O)N1CCC[C@H]1C(=O)N[C@@H](Cc1ccc(O)cc1)C(=O)N[C@@H](CO)C(=O)N[C@@H](CCCCN)C(=O)O)C(C)C [βA-WLA-YSK] (HELM PEPTIDE1{[bAla].W.L.A.Y.P.D.S.V.P.Y.S.K}$$$$V2.0; N-terminus and C-terminus assumed) | 5000 (≈ 3.34 mM) | 2000 (≈ 1.34 mM) | 380 ± 140 | 
CC(C)C[C@H](NC(=O)[C@H](Cc1c[nH]c2ccccc12)NC(=O)CCN)C(=O)N[C@@H](C)C(=O)N[C@@H](Cc1ccc(O)cc1)C(=O)N1CCC[C@H]1C(=O)N[C@@H](CC(=O)O)C(=O)N[C@@H](CO)C(=O)N[C@H](C(=O)N1CCC[C@H]1C(=O)N[C@@H](Cc1ccc(O)cc1)C(=O)N[C@@H](CO)C(=O)N1CCC[C@H]1C(=O)N[C@@H](CCCCNC(=O)CCCC[C@@H]1SC[C@@H]2NC(=O)N[C@@H]21)C(=O)O)C(C)C [βA-WLA-YSPK-bio] (H-[βAla]WLAYPDSVPYSPK(Biotin)-OH; N-terminus and C-terminus assumed) |  |  | 62 ± 3 | 
CC(C)C[C@H](NC(=O)[C@H](Cc1c[nH]c2ccccc12)NC(=O)CCN)C(=O)N[C@@H](C)C(=O)N[C@@H](Cc1ccc(O)cc1)C(=O)N1CCC[C@H]1C(=O)N[C@@H](CC(=O)O)C(=O)N[C@@H](CO)C(=O)N[C@H](C(=O)N1CCC[C@H]1C(=O)N[C@@H](Cc1ccc(O)cc1)C(N)=O)C(C)C [βA-WLA-Yam] (HELM PEPTIDE1{[bAla].W.L.A.Y.P.D.S.V.P.Y.[am]}$$$$V2.0; N-terminus assumed) |  | 5000 (≈ 3.9 mM) | 410 ± 50 | 
CSCC[C@H](NC(=O)[C@@H]1CCCN1C(=O)[C@@H](NC(=O)[C@H](CO)NC(=O)[C@H](CC(=O)O)NC(=O)[C@@H]1CCCN1C(=O)[C@H](Cc1ccc(O)cc1)NC(=O)[C@H](C)NC(=O)[C@H](CC(C)C)NC(=O)[C@H](Cc1c[nH]c2ccccc12)NC(=O)CCN)C(C)C)C(N)=O [βA-WLAam] (HELM PEPTIDE1{[bAla].W.L.A.Y.P.D.S.V.P.M.[am]}$$$$V2.0; N-terminus assumed) | 10000 (≈ 8.01 mM) | 10000 (≈ 8.01 mM) | 840 ± 80 | 
WLAYPDSVPM-NH2 [WLAam] |  |  | 1500 | 
